Source: patent US4719211A, “2,3,4,9-tetrahydro-2-heteroarylalkyl-1H-pyrido(3,4-B)indoles having antihypertensive properties” (American Home Products Corporation, priority 1986, dated 1988)
pKi: −log10 of the molar value. Counter-ions that a name gives are not always drawn.

Tests used:
rats = assay: Conditioned avoidance response procedure (response lever); assay type: in vivo; conditions: ip, rat, i.p.; for ED50: read-out: AB50 (dose producing 50% block in avoidance responding)
Experimental: In conditioned avoidance response type procedures, the effect of the drug on the subject animals previously trained ability to avoid and/or escape a shock is measured. […] If the compound blocks the subject animal's ability to escape the shock, then the compound is judged to have a sedative effect.
In this procedure, rats trained previously are placed in plexiglass experimental chambers equipped with a response lever, house light, and sonalert. A steel grid floor is wired for presentation of electric shock. Each trial consists of a fifteen-second warning tone (conditioned stimulus), continuing for an additional fifteen seconds accompanied by electric shock, (unconditioned stimulus). The rat can terminate a trial at any point by depression of the response lever. A response during the initial fifteen-second warning tone ends the trial before shock delivery and is considered an avoidance response, while a response occuring during shock delivery is an escape response. Trials are presented on a variable interval schedule of two minutes. The session consists of sixty trials. Animals are run two to three times weekly with control sessions always preceding a drug run, and with at least one day intervening, compounds are administered i.p. (p.o., s.c.) at appropriate pre-treatment times to a minimum of five to six rats at each dose level over a range of doses.
The following experimental parameters are recorded by computer: (1) the number of intertrial interval responses, (2) the number of avoidance responses, (3) the number of escape responses, and (4) the number of trials in which no response occured.
Response counts are summed over all subjects at a given dose. […] This number is expressed as a percentage of the total trials. Control performance is assumed to be 100% for avoidance and escape responding and the dose calculated to produce a 50% block in avoidance responding (AB50) is obtained from a dose-effect regression line fitted by the method of least squares. […] If both AB50 's and EB20 's can be calculated, a dose ratio can be determined according to the following formula: […]

[1] = test system: spontaneously hypertensive rat (SHR); assay: Antihypertensive effect: change in systolic blood pressure in spontaneously hypertensive rats (tail plethysmography); assay type: in vivo
Experimental: The systolic blood pressure of male conscious, spontaneously hypertensive rat (SHR) (Taconic Farms) is measured by indirect tail plethysmography using a system designed and built by Narco Bio-Systems-(Model MK-IV). Groups consisting of 4 rats receive a single oral dose of the test compound. Rats are warmed in a heated chamber at 38° C. for 10 minutes prior to measurement of systolic pressure to increase the accuracy of measurements.
The systolic pressure and heart rate data are collected in an Hewlett Packard 88 computer. Data are grouped and summarized, with the mean change in pressure and heart rate at each time period calculated.
Unless otherwise noted, the compound was tested in the form in which it was obtained in the example.

[2] = target: T1, limbic D-2 dopamine receptor (Rattus norvegicus, UniProt P61169); assay: Inhibition of limbic D-2 dopamine receptor binding (3H-spiroperidol, rat limbic brain homogenate); conditions: 0.3 nM 3H-spiroperidol, read-out: Ki (and 95% confidence interval)
T1 construct: Limbic brain tissue (nucleus accumbens, septal area, olfactory tubercle) is dissected and homogenized on ice; from tissue; host or cells: rat limbic brain tissue (nucleus accumbens, septal area, olfactory tubercle), washed membrane homogenate
T1 sequence (P61169 whole entry): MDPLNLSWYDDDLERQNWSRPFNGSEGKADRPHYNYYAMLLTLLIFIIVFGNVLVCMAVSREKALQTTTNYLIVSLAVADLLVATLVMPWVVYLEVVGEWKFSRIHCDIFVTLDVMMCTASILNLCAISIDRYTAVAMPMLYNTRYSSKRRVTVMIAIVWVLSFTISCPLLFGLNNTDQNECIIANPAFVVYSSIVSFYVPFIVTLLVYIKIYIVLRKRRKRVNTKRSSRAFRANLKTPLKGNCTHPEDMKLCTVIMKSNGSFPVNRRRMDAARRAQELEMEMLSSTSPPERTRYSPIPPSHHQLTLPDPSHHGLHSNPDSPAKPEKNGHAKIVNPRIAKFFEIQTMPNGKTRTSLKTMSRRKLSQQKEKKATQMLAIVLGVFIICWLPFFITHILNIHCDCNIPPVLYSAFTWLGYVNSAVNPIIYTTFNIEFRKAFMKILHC
Experimental: Several rats are decapitated and the brains are rapidly removed. […] The homogenate is then diluted 4-fold with buffer and centrifuged at 30,000×g for 20 min, and the supernatant is discarded. The pellet is resuspended in the same volume of buffer and recentrifuged as before, again discarding the supernatant. This pellet is then resuspended in the same volume of buffer used in the homogenization, and the protein content of this preparation is assayed by the Lowry method. The homogenate is stored frozen at -70° C. until use.
The vials are then counted in a Packard 460CD scintillation counter.
Specific binding is defined as total binding less binding in the presence of 1 μM (+)butaclamol. Binding in the presence of various concentrations of test drug is expressed as a percent of specific binding when no drug is present. […] Linear regression analysis then yields a straight line with 95% confidence limits from which an IC50 can be inversely predicted. Ki (inhibition constant) for the test drug is then calculated by the formula: [formula]

male CF-1 mice = assay: Antagonism of apomorphine-induced stereotyped behavior in mice; assay type: in vivo, mouse; conditions: apomorphine 10 mg/kg s.c.
Experimental: In the second procedure, the compound's (drug's) abiltiy to antagonize apomorphine-induced stereotyped behavior in mice is measured. In the procedure, 20-25 g male CF-1 mice (Charles River) are tested one week before the experiment for a positive stereotyped response to 10 mg/kg s.c. apomorphine. Test compounds, suspended or solubilized in 0.25% Tween 80 ® in water, are administered at several dose levels to male mice (6/dose level). A control group, run simultaneously with drug groups, receives equal volumes of solvent. Thiry minutes later (i.p. administration) or 60 minutes later (p.o administration), drug-treated and control mice are challenged with 10 mg/kg apomorphine s.c. Five minutes after the injection, the rearing-head-bobbing-licking syndrome induced by apomorphine is recorded as present or absent for each animal. Readings are repeated every 5 minutes during a 30 minute test session. The number of positive or negative 5-minute intervals during which apoomorphine-induced stereotyped behavior is present or absent. ED50 values (with 95% confidence intervals) are calculated for inhibition of apomorphine-inducedstereotyped behavior, by a simple linear regression analysis with inverse prediction.

[3] = SHR, single oral dose 50 mg/kg, 1.5 hrs.
[4] = SHR, single oral dose 50 mg/kg, 4 hrs.
[5] = SHR, single oral dose 10 mg/kg, 1.5 hrs.
[6] = SHR, single oral dose 10 mg/kg, 4 hrs.

Structure (SMILES) | ED50 (rats) [mg/kg] | Change in Blood Pressure [1, 3] | Change in Blood Pressure [1, 4] | other results
c1ccc(CCN2CCc3c([nH]c4ccccc34)C2)nc1 [Example 9, 2,3,4,9-Tetrahydro-2-[2-(2-Pyridinyl)ethyl]-1H-pyrido[3,4-b]-indole, Dihydrochloride.] | 22.6 | – | – | –
c1ccc2c3c([nH]c2c1)CN(Cc1ccncc1)CC3 [Example 1, 2,3,4,9-Tetrahydro-2-(4-Pyridinylmethyl)-1H-Pyrido-[3,4-b]Indole, Dihydrochloride Hemihydrate] | – | -27 mm of Hg. | -35 mm of Hg. | –
Cl.Cl.c1ccc2c3c([nH]c2c1)CN(CCc1ccncc1)CC3 [Example 2, 2,3,4,9-Tetrahydro-2-[2-(4-Pyridinyl)ethyl]-1H-Pyrido[3,4-b]Indole, Dihydrochloride] | – | -79 mm of Hg. | -57 mm of Hg. | Change in Blood Pressure [1, 5]: -73 mm of Hg.; Change in Blood Pressure [1, 6]: -30 mm of Hg.; Change in Blood Pressure ([1]; SHR, single oral dose 25 mg/kg, 1.5 hrs.): -18 mm of Hg.; Change in Blood Pressure ([1]; SHR, single oral dose 25 mg/kg, 4 hrs.): -58 mm of Hg.
Cl.Cl.c1ccc2nc(CCCCN3CCc4c([nH]c5ccccc45)C3)ccc2c1 [Example 8, 2,3,4,9-Tetrahydro-2-[4-(2-Quinolinyl)butyl]1H-Pyrido[3,4-b]Indole, Dihydrochloride] | 31 | – | – | –
Cl.Cl.c1ccc2c(CCCCN3CCc4c([nH]c5ccccc45)C3)ccnc2c1 [Example 6, 2,3,4,9-Tetrahydro-2-[4-(4-Quinolinyl)butyl]-1H-Pyrido[3,4-b]Indole, Dihydrochloride] | – | -94 mm of Hg. | – | –
Cl.Cl.c1ccc2nc(CCN3CCc4c([nH]c5ccccc45)C3)ccc2c1 [Example 5, 2,3,4,9-Tetrahydro-2-[2-(2-Quinolinyl)ethyl]-1H-Pyrido[3,4-b]Indole Dihydrochloride] | – | -98 mm of Hg. | -84 mm of Hg. | Change in Blood Pressure [1, 5]: -25 mm of Hg.; pKi [2]: 6.78; minimal effective dose (rats; read-out: dose down to which the avoidance response is blocked in a dose dependant manner): ≤ 15 mg/kg; ED50 (male CF-1 mice; Mus musculus, ip, read-out: ED50 for inhibition of apomorphine-induced stereotyped behavior): 18 mg/kg; ED50 for inhibition of apomorphine-induced stereotyped behavior (male CF-1 mice; i.p., Dihydrochloride): 20.37 mg/kg
Cl.Cl.c1ccc2c3c([nH]c2c1)CN(CCc1cnccn1)CC3 [Example 7, 2,3,4,9-Tetrahydro-2-[2-(2Pyrazinyl)ethyl]-1H-Pyrido[3,4-b]Indole, Dihydrochloride] | – | -110 mm of Hg. | -104 mm of Hg. | Change in Blood Pressure ([1]; SHR, single oral dose 5 mg/kg, 1.5 hrs.): -14 mm of Hg.
Cl.Cl.O.c1ccc2c3c([nH]c2c1)CN(CCCCCCCc1ccncc1)CC3 [Example 3, 2,3,4,9-Tetrahydro-2-[7-(4-Pyridinyl)heptyl]-1H-Pyrido[3,4-b]Indole, Dihydrochloride Hydrate] | – | -44 mm of Hg. | -58 mm of Hg. | –
Cl.Cl.c1ccc2nc(CN3CCc4c([nH]c5ccccc45)C3)ccc2c1 [2,3,4,9-tetrahydro-2-(2-quinolinylmethyl)-1H-pyrido[3,4-b]-indole, dihydrochloride, reference compound] | – | – | – | Change in Blood Pressure ([1]; 50 mg/kg, time not stated, did not lower blood pressure significantly): -10 mm Hg
Cl.Cl.c1ccc2c3c([nH]c2c1)CN(CCCCc1ccncc1)CC3 [Example 4, 2,3,4,9-Tetrahydro-2-[4-(4-Pyridinyl)butyl]-1H-Pyrido[3,4-b]Indole Dihydrochloride] | 14.1 | -105 mm of Hg. | -115 mm of Hg. | Change in Blood Pressure [1, 5]: -43 mm of Hg.; Change in Blood Pressure [1, 6]: -39 mm of Hg.
Cl.Cl.c1cncc(CCCN2CCc3c([nH]c4ccccc34)C2)c1 [Example 13, 2,3,4,9-Tetrahydro-2-[3-(3-Pyridinyl)propyl]1H-pyrido[3,4-b]indole, dihydrochloride] | 20.9 | – | – | –
